Each structure is given as a SMILES string.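 Cells were grown in 96-well plates and exposed to each compound for 48 hours at five concentrations; endpoints were interpolated linearly between bracketing concentrations, or set to the highest concentration if not reached. The concentration for 50% growth inhibition is given as GI50.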 Activity calls are given as the source filed them. Rule as the data show it: active = GI50 up to about 1.1 µM and inactive = higher.

Test systems include SK-OV-3; MDA-MB-435; NCI/ADR-RES; NCI-H522; LOX IMVI; UACC-62; RXF 393; NCI-H226; SF-268; KM12; HL-60; DU-145; ACHN; OVCAR-3; A498; SF-295; MDA-N; TK-10; SNB-75; SK-MEL-28.
What all share (test): NCI anticancer screen, dose series, 48 h

Take `CCOC(=O)CCC(C(=O)OCC)n1nnc2cc(Nc3c(C)[n+]([O-])c4cc(F)c(OCC)cc4[n+]3[O-])ccc21` (configuration not stated): the GI50 in the experiment with SK-OV-3, in the experiment with MDA-MB-435, with NCI/ADR-RES, in the experiment on NCI-H522, with LOX IMVI and in the experiment with UACC-62 was > 100 µM (inactive) each time. Besides, the GI50 was 14 µM (inactive) in the experiment with RXF 393; > 100 µM (inactive) in the experiment with NCI-H226; 25.5 µM (inactive) with SF-268; > 100 µM (inactive) with KM12; > 100 µM (inactive) in the experiment with HL-60; > 100 µM (inactive) in the experiment with DU-145. The GI50 with ACHN is 52.6 µM (inactive); in the experiment on OVCAR-3, > 100 µM (inactive); in the experiment on A498, > 100 µM (inactive); with SF-295, 40.9 µM (inactive); in the experiment on MDA-N it was > 100 µM (inactive); with TK-10 it was 48.3 µM (inactive). Also, the GI50 in the experiment on SNB-75 was 37.4 µM (inactive).
Take `CSc1ccn(C2CC(F)C(CO)O2)c(=O)n1` (configuration not stated): the GI50 with SK-OV-3, in the experiment with MDA-MB-435, in the experiment on NCI/ADR-RES, with NCI-H522, with LOX IMVI and with UACC-62 was > 100 µM (inactive) in each case. In addition, the GI50 in the experiment with RXF 393, in the experiment on NCI-H226, with SF-268, in the experiment on KM12, with HL-60 and in the experiment with DU-145 was > 100 µM (inactive) each time. The GI50 in the experiment on ACHN, in the experiment on OVCAR-3, with A498, with SF-295, with MDA-N and with TK-10 was > 100 µM (inactive) each time. In addition, the GI50 in the experiment on SNB-75 was > 100 µM (inactive).
Take `Nc1ccc(Oc2ccc(C34CC5CC6C3CC3CC4C(C5)C6(c4ccc(Oc5ccc(N)cc5)cc4)C3)cc2)cc1`: the GI50 was 22.8 µM (inactive) with SK-OV-3; 0.376 µM (active) in the experiment on MDA-MB-435; > 74.6 µM (inactive) with NCI/ADR-RES; 12.8 µM (inactive) in the experiment on NCI-H522; 20 µM (inactive) in the experiment on LOX IMVI; 2.74 µM (inactive) with UACC-62. The GI50 in the experiment with RXF 393 is 18.6 µM (inactive); in the experiment on NCI-H226 it was 22.8 µM (inactive); in the experiment on SF-268 it was 22.6 µM (inactive); in the experiment with KM12 it was 19.5 µM (inactive); in the experiment with HL-60 it was 7.14 µM (inactive); in the experiment on DU-145, 8.93 µM (inactive). For the same compound, the GI50 in the experiment on ACHN is 3.17 µM (inactive); with OVCAR-3 it was 6.5 µM (inactive); in the experiment with A498, 22.2 µM (inactive); in the experiment on SF-295, 23.8 µM (inactive); with MDA-N, 0.334 µM (active); with TK-10, 21.6 µM (inactive). For the same compound, the GI50 in the experiment with SK-MEL-28 was 0.714 µM (active).
Consider `CCOC(=O)[C@@H]1CCN2CN(c3ccc(OC)cc3)N=C(c3ccccc3)[C@@]12c1ccccc1`, for which the GI50 in the experiment on SK-OV-3 was 44 µM (inactive); with MDA-MB-435, 26.5 µM (inactive); in the experiment on NCI/ADR-RES it was 28.3 µM (inactive); in the experiment on NCI-H522 it was 17.5 µM (inactive); in the experiment on LOX IMVI, 14.1 µM (inactive); in the experiment on UACC-62, 15.5 µM (inactive). Besides, the GI50 was 14.7 µM (inactive) with RXF 393; 14.7 µM (inactive) in the experiment with NCI-H226; 28.9 µM (inactive) in the experiment on SF-268; 28.3 µM (inactive) in the experiment on KM12; 6.7 µM (inactive) in the experiment on HL-60; 22.6 µM (inactive) with DU-145. The GI50 in the experiment with ACHN is 24.8 µM (inactive); with A498, 21.6 µM (inactive); in the experiment with SF-295 it was 25.8 µM (inactive); in the experiment on MDA-N it was 23.2 µM (inactive); in the experiment with TK-10 it was 29.3 µM (inactive); in the experiment with SK-MEL-28 it was 21.5 µM (inactive). Moreover, the GI50 in the experiment with SNB-75 was 11.5 µM (inactive).
Turning to `CC(c1ccccc1)n1cncc1C(=O)NN1CCN(C)CC1` (configuration not stated), the GI50 in the experiment with SK-OV-3, in the experiment on MDA-MB-435, with NCI/ADR-RES, with NCI-H522, with LOX IMVI and in the experiment on UACC-62 was > 10 µM (inactive) throughout. Further, the GI50 was > 10 µM (inactive) in the experiment with RXF 393; 3.81 µM (inactive) in the experiment on NCI-H226; > 10 µM (inactive) with SF-268; > 10 µM (inactive) in the experiment on KM12; > 10 µM (inactive) in the experiment with HL-60; > 10 µM (inactive) in the experiment with DU-145. Besides, the GI50 with ACHN, in the experiment on OVCAR-3, with A498, with SF-295, with MDA-N and in the experiment with TK-10 was > 10 µM (inactive) in each case. Also, the GI50 in the experiment on SK-MEL-28 was > 10 µM (inactive).
As for `Cc1cc(O)c(C(C)C)cc1/N=C/c1ccccc1O`, the GI50 was 15.2 µM (inactive) in the experiment with SK-OV-3; 1.99 µM (inactive) in the experiment with MDA-MB-435; 3.12 µM (inactive) in the experiment on NCI/ADR-RES; 3.72 µM (inactive) with NCI-H522; 3.13 µM (inactive) in the experiment on LOX IMVI; 8.91 µM (inactive) with UACC-62. Also, the GI50 was 1.34 µM (inactive) in the experiment on RXF 393; 5.52 µM (inactive) with NCI-H226; 6.21 µM (inactive) in the experiment with SF-268; 3.76 µM (inactive) in the experiment with KM12; 0.303 µM (active) in the experiment with HL-60; 5.53 µM (inactive) in the experiment on DU-145. In addition, the GI50 with ACHN was 11.5 µM (inactive); in the experiment with OVCAR-3, 2.48 µM (inactive); with A498 it was 23.6 µM (inactive); with SF-295, 13.1 µM (inactive); in the experiment with MDA-N it was 3.72 µM (inactive); with TK-10, 13.1 µM (inactive). Further, in the experiment with SK-MEL-28, the GI50 was 15.1 µM (inactive).
Consider `CCCS(=O)OC1C(C2COC(C)(C)O2)OC2OC(C)(C)OC21` (configuration not stated), for which the GI50 in the experiment on SK-OV-3 is 22 µM (inactive); with MDA-MB-435 it was 6.31 µM (inactive); in the experiment with NCI/ADR-RES it was 17.5 µM (inactive); in the experiment on NCI-H522, 9.27 µM (inactive); in the experiment on LOX IMVI, 6.43 µM (inactive); in the experiment with UACC-62 it was 12.1 µM (inactive). The GI50 with RXF 393 is 9.59 µM (inactive); in the experiment on NCI-H226, 21.7 µM (inactive); in the experiment with SF-268 it was 17.9 µM (inactive); in the experiment with KM12 it was 13.1 µM (inactive); with DU-145, 20.2 µM (inactive); in the experiment with ACHN it was 13.7 µM (inactive). Besides, the GI50 in the experiment with OVCAR-3 is 15.1 µM (inactive); in the experiment with A498, 32.1 µM (inactive); in the experiment on SF-295, 15.1 µM (inactive); in the experiment with MDA-N, 15.1 µM (inactive); in the experiment with TK-10, 16.2 µM (inactive); with SK-MEL-28, 14.5 µM (inactive). Moreover, the GI50 with SNB-75 was 12.9 µM (inactive).
With `N#Cc1c(N)c2c(c(-c3ccccc3)c1-c1ccccc1)C(=O)N(Nc1ccccc1)C2=O`, the GI50 with MDA-MB-435 is 68.5 µM (inactive); in the experiment on NCI/ADR-RES it was 38.2 µM (inactive); in the experiment with NCI-H522, 58.6 µM (inactive); in the experiment with LOX IMVI it was 16.9 µM (inactive); in the experiment on UACC-62, 49.9 µM (inactive); with RXF 393, 19.3 µM (inactive). Moreover, the GI50 in the experiment on NCI-H226 is 37.3 µM (inactive); in the experiment on SF-268, 59.2 µM (inactive); in the experiment on KM12 it was 24.2 µM (inactive); in the experiment on HL-60, 22.8 µM (inactive); in the experiment with DU-145, 31.3 µM (inactive); with ACHN, 59.2 µM (inactive). The GI50 was 21.7 µM (inactive) in the experiment on OVCAR-3; 28.4 µM (inactive) in the experiment with A498; 41.5 µM (inactive) in the experiment on SF-295; 36.8 µM (inactive) in the experiment on MDA-N; 42.1 µM (inactive) with TK-10; 46.6 µM (inactive) with SK-MEL-28. In addition, the GI50 in the experiment with SNB-75 is 38.4 µM (inactive).

Values taken from ChEMBL document CHEMBL1201862, “PubChem BioAssay data set” (2004).
